Several values for one entry are separate records, joined by “and”; a condition that tells them apart may be missing. Equal values may be shown once.
Columns and labels:
[1] = biological target: T1, retinoid X receptor (RXR)α (Homo sapiens, UniProt P19793); test: Nuclear receptor selectivity profiling, hybrid reporter gene assay, RXRα; format: cell-based
T1 construct: RXRα (pFA-CMV-h RXRα-LBD[105], 1 μM Bexarotene); expressed in transfected cells; host or cells: HEK293T
T1 sequence (P19793 227-458 limits assumed): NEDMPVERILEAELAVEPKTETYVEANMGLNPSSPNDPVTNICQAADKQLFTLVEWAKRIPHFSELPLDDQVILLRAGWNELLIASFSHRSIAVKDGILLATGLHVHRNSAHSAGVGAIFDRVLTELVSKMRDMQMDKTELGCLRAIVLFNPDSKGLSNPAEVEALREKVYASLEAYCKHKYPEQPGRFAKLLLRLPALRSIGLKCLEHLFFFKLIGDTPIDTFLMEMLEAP
Protocol: (§1) Compounds 1–3 were characterized in a hybrid reporter gene assay for their agoniztic effect on human nuclear receptors PPARα/γ/δ, RXRα, FXRα, RARα in HEK293T cells. Compound 1 was tested in an isothermal titration calorimetry (ITC) assay to measure direct binding affinity to the ligand-binding domain of PPARγ. ADME properties were measured in standardized assays at Roche.
PPAR activation was determined in uniform Gal4-hybrid reporter gene assays for the PPARα, PPARγ and PPARδ isoforms in HEK293T cells (German Collection of Microorganisms and Cell Culture GmbH, DSMZ) which were transiently transfected with pFR-Luc (Stratagene, La Jolla, CA, USA; reporter) and pRL-SV40 (Promega, Madison, WI, USA; internal control) and one pFA-CMV-hPPAR-LBD[97] clone, coding for the hinge region and ligand binding domain of the canonical isoform of human PPARα, PPARγ, PPARδ or respectively. Cells were cultured in Dulbecco’s modified Eagle’s medium (DMEM), high glucose supplemented with 10% fetal calf serum (FCS), sodium pyruvate (1 mM), penicillin (100 U ⋅ ml^-1), and streptomycin (100 μg ⋅ ml^-1) at 37 °C and 5% CO2 and seeded in 96-well plates (3 × 10^4 cells per well). After 24 h, medium was changed to Opti-MEM without supplements and cells were transiently transfected using Lipofectamine LTX reagent (Invitrogen) according to the manufacturer’s protocol. Five hours after transfection, cells were incubated with the test compounds in Opti-MEM supplemented with penicillin (100 U ⋅ ml^-1), streptomycin (100 μg ⋅ ml^-1) and 0.1% DMSO for 16 h before luciferase activity was measured using the Dual-Glo Luciferase Assay System (Promega) according to the manufacturer’s protocol on a Tecan Spark luminometer (Tecan Deutschland GmbH, Germany). Firefly luminescence was divided by Renilla luminescence and multiplied by 1000 resulting in relative light units (RLU) to normalize for transfection efficiency and cell growth. Fold activation was obtained by dividing the mean RLU of a test compound by the mean RLU of the untreated control. All samples were tested in at least three biologically independent experiments in duplicates. For dose-response curve fitting and calculation of EC50 values, the equation “[Agonist] versus response (variable slope—four parameters)” was used in GraphPad Prism (version 7.00, GraphPad Software, La Jolla, CA, USA) with fold activation data. The reference agonizts GW7647 (PPARα)[98],[99], pioglitazone (PPARγ)[100],[101] and L165,041 (PPARδ)[102],[103] were used to validate the assays and to monitor assay performance. Nuclear receptor selectivity profiling was performed with corresponding pFA-CMV-hNR-LBD clones and suitable reference agonizts on RARα (pFA-CMV-hRARα-LBD[104], 1 μM tretinoin), LXRα (pFA-CMV-hLXRα-LBD[104], 1 μM TO901317) and RXRα (pFA-CMV-h RXRα-LBD[105], 1 μM Bexarotene).

CYP2B6 = CYP2B6 (Homo sapiens, UniProt P20813); test: CYP inhibition dose-response; format: in vitro ADME; conditions: substrate BUPROPION
Sequence of CYP2B6 (P20813 whole entry): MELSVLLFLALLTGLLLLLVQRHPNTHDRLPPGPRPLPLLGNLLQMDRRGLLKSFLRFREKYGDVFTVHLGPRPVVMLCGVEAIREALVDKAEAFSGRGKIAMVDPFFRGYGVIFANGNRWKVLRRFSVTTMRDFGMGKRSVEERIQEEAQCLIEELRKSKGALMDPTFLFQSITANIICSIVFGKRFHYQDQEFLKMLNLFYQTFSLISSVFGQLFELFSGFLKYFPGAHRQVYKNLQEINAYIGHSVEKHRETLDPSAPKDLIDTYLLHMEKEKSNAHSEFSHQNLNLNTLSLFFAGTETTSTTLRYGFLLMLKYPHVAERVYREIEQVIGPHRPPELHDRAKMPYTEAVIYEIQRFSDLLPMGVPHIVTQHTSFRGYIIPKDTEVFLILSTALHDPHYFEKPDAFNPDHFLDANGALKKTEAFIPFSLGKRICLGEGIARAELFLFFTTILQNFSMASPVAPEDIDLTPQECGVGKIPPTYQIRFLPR
Protocol: (§2) SI11Absorption Distribution Metabolism and Excretion and Toxicity Data
(§3) To assess the drug-like characteristics of the newly designed PPAR modulators, a series of tests were conducted covering various aspects of absorption, distribution, metabolism, and excretion (ADME) properties. Specifically, these assessments included the parallel artificial membrane permeability assay (PAMPA) with permeation co- […]
(§4) efficients ([…]), LogD measurements, microsomal clearance, hepatocyte clearance, P-glycoprotein (Pgp) efflux ratio and binding and the unbound free fraction. Furthermore, the evaluation of inhibition po-tential against cytochrome P450 isoenzymes (CYP) proteins was investigated. For seven selected CYP proteins (i.e., Cyp3A4, Cyp1A2, Cyp2B6, Cyp2C9, Cyp2D6, Cyp2C19, and Cyp2C8) the half maximal inhibitory con-centration (IC50) was determined. (Table S15). […]
(§5) activity in the CYP assays was found.
(§6) Table S14: Absorption distribution metabolism and excretion (ADME) properties of compounds 1 and 2. […]
(§7) The values for microsomal clearance and CYP-inhibition represent single point measurements. […]
(§8) Molecule Enzyme Substrate IC50 (µM) […]

CYP1A2 = CYP1A2 (Homo sapiens, UniProt P05177); test: CYP inhibition dose-response; format: in vitro ADME; conditions: substrate PHENACETIN
Sequence of CYP1A2 (P05177 whole entry): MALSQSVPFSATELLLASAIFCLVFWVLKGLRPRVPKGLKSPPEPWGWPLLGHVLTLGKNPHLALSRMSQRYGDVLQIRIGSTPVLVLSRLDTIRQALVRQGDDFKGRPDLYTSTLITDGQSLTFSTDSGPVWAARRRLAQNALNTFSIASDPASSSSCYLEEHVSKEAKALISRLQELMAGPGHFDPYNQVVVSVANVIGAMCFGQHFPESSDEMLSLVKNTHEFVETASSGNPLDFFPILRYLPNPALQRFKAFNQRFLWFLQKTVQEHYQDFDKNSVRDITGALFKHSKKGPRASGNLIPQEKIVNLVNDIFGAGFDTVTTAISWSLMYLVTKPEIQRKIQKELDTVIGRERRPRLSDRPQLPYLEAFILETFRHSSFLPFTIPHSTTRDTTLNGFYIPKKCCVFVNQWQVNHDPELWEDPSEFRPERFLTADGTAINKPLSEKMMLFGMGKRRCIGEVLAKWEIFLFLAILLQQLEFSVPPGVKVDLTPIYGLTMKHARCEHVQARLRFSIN
Protocol: as §2, §3, §4, §5, §6, §7, §8

CYP2C19 = CYP2C19 (Homo sapiens, UniProt P33261); test: CYP inhibition dose-response; format: in vitro ADME; conditions: substrate S-MEPHENYTOIN
Sequence of CYP2C19 (P33261 whole entry): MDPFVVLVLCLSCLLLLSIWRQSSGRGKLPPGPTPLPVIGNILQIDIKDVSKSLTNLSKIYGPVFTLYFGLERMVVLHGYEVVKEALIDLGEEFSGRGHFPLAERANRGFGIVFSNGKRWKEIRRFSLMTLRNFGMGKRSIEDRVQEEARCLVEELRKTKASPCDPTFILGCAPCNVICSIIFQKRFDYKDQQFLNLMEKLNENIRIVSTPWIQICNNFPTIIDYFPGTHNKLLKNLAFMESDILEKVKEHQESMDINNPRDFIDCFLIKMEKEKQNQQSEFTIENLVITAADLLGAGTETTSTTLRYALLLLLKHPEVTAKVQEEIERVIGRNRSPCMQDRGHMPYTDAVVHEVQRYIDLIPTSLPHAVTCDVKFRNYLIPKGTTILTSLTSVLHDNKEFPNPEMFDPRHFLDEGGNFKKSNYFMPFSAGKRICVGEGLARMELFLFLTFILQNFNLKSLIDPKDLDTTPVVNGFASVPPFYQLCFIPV
Protocol: as §2, §3, §4, §5, §6, §7, §8

human PPARδ = biological target: T2, human PPARδ (Homo sapiens, UniProt Q03181); test: Gal4-hybrid reporter gene assay, PPARδ activation; format: cell-based
T2 construct: expressed in transfected cells; host or cells: HEK293T
T2 sequence (Q03181 211-439 limits assumed): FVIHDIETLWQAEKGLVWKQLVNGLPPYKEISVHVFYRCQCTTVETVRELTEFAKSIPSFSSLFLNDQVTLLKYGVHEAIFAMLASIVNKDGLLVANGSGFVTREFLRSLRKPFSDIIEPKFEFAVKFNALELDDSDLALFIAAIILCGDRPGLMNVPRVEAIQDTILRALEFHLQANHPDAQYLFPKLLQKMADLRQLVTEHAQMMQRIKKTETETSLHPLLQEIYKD
Protocol: as §1
PPAR activation was determined in uniform Gal4-hybrid reporter gene assays for the PPARα, PPARγ and PPARδ isoforms in HEK293T cells (German Collection of Microorganisms and Cell Culture GmbH, DSMZ) which were transiently transfected with pFR-Luc (Stratagene, La Jolla, CA, USA; reporter) and pRL-SV40 (Promega, Madison, WI, USA; internal control) and one pFA-CMV-hPPAR-LBD[97] clone, coding for the hinge region and ligand binding domain of the canonical isoform of human PPARα, PPARγ, PPARδ or respectively. Cells were cultured in Dulbecco’s modified Eagle’s medium (DMEM), high glucose supplemented with 10% fetal calf serum (FCS), sodium pyruvate (1 mM), penicillin (100 U ⋅ ml^-1), and streptomycin (100 μg ⋅ ml^-1) at 37 °C and 5% CO2 and seeded in 96-well plates (3 × 10^4 cells per well). After 24 h, medium was changed to Opti-MEM without supplements and cells were transiently transfected using Lipofectamine LTX reagent (Invitrogen) according to the manufacturer’s protocol. Five hours after transfection, cells were incubated with the test compounds in Opti-MEM supplemented with penicillin (100 U ⋅ ml^-1), streptomycin (100 μg ⋅ ml^-1) and 0.1% DMSO for 16 h before luciferase activity was measured using the Dual-Glo Luciferase Assay System (Promega) according to the manufacturer’s protocol on a Tecan Spark luminometer (Tecan Deutschland GmbH, Germany). Firefly luminescence was divided by Renilla luminescence and multiplied by 1000 resulting in relative light units (RLU) to normalize for transfection efficiency and cell growth. Fold activation was obtained by dividing the mean RLU of a test compound by the mean RLU of the untreated control. […]

ZAP70 = ZAP70 (Homo sapiens, UniProt P43403); test: Safety off-target panel, enzymatic; format: biochemical; conditions: single point
Sequence of ZAP70 (P43403 whole entry): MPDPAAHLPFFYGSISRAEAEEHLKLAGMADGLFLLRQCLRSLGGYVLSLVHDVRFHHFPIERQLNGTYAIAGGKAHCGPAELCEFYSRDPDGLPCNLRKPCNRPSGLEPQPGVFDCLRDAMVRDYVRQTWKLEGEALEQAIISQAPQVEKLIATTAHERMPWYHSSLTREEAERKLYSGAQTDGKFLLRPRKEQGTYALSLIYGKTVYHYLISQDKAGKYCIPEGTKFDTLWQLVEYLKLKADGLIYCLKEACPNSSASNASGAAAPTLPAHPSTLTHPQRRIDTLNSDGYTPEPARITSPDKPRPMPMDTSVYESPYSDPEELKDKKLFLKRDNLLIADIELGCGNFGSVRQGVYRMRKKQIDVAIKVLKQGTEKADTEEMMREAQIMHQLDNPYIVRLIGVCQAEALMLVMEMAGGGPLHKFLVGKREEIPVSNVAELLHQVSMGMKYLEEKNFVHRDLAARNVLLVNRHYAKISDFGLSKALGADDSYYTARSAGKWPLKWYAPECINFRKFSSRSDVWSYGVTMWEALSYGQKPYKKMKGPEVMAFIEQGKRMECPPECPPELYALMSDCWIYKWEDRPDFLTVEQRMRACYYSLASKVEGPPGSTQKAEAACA
Description: (§9) Table S9-S12 list all targets, their species, inhibition (%) and assay type for the experiments conducted in the
(§10) off-targets. […] The numbers for mean
(§11) inhibition (%) represent single point measurements.
(§12) off-targets. […] The numbers for
(§13) mean inhibition (%) represent single point measurements.

PHOSPHODIESTERASE 3B = PHOSPHODIESTERASE 3B (Homo sapiens, UniProt Q13370); test: Safety off-target panel, enzymatic; format: biochemical; conditions: single point
Sequence of UniProt Q13370 (Q13370 whole entry): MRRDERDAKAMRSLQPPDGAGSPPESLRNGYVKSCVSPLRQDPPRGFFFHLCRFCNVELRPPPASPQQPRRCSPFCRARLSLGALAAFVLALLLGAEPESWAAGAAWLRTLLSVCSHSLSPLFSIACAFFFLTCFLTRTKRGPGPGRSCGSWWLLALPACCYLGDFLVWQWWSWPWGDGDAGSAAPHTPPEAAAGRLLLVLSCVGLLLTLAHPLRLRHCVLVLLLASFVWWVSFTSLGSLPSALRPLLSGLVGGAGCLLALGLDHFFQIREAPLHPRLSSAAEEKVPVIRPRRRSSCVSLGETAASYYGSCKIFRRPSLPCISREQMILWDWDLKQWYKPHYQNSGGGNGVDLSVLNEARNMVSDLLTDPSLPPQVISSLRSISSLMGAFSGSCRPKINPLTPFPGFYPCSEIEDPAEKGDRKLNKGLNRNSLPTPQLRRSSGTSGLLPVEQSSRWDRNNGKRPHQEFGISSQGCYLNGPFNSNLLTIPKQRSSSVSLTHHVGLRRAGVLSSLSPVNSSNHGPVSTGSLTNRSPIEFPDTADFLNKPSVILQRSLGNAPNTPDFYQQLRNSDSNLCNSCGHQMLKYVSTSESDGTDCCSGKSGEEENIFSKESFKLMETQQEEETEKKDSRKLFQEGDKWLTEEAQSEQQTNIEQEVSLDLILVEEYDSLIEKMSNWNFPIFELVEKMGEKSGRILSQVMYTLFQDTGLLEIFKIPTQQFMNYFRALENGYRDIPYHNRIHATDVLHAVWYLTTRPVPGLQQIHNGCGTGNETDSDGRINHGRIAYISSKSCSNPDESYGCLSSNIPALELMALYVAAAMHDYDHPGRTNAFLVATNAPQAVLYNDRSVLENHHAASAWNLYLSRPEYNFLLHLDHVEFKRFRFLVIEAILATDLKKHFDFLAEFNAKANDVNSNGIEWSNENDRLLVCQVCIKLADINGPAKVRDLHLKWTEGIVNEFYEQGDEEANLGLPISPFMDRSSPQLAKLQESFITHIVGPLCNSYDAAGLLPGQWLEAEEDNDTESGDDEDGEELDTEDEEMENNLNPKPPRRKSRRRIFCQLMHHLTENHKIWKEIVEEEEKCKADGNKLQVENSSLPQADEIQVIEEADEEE
Description: as §9, §10, §11, §12, §13

MONOAMINE OXIDASE-A = MONOAMINE OXIDASE-A (Homo sapiens, UniProt P21397); test: Safety off-target panel, enzymatic; format: biochemical; conditions: single point
Sequence of MONOAMINE OXIDASE-A (P21397 whole entry): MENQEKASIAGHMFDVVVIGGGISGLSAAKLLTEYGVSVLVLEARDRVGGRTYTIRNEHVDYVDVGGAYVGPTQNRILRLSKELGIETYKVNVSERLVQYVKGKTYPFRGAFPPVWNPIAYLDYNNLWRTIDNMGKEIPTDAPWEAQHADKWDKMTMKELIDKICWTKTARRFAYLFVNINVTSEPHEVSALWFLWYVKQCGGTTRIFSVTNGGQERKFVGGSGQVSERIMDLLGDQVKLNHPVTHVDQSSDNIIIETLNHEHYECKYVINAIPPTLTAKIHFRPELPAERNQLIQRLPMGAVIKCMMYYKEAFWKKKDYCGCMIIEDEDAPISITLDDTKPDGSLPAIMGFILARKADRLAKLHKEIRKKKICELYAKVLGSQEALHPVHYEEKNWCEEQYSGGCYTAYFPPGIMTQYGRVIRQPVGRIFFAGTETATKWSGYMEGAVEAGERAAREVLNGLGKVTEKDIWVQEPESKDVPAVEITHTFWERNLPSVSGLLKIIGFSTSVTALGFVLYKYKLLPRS
Description: as §9, §10, §11, §12, §13

CYCLO OXYGENASE 2 = CYCLO OXYGENASE 2 (Homo sapiens, UniProt P35354); test: Safety off-target panel, enzymatic; format: biochemical; conditions: single point
Sequence of CYCLO OXYGENASE 2 (P35354 18-604): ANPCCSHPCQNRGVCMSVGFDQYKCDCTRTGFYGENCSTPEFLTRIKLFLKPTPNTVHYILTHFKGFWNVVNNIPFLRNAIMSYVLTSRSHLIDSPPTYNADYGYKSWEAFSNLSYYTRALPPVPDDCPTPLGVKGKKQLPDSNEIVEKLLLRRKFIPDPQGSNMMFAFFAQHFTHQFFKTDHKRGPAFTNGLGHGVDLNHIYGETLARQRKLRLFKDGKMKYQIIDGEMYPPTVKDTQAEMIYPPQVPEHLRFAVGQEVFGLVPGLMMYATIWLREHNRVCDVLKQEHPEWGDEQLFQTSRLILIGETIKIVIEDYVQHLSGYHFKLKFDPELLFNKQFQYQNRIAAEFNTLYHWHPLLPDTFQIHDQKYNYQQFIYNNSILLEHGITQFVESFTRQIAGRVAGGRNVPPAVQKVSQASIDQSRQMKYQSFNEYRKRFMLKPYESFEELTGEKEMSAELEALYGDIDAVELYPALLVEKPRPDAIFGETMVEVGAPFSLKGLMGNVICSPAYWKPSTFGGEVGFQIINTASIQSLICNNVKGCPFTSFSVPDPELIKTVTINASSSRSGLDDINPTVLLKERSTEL
Description: as §9, §10, §11, §12, §13

Row | Structure (SMILES) | RXRα reporter activation, replicate values (DMSO ctrl = 1,000) ([1]; 3 µM) | RXRα reporter activation, replicate values (DMSO ctrl = 1,000) ([1]; 10 µM) | IC50 (CYP2B6) [µM] | IC50 (CYP1A2) [µM] | IC50 (CYP2C19) [µM] | activity on PPARδ (human PPARδ; result in words) | inhibition at 10 µM (ZAP70) [%] | inhibition at 10 µM (PHOSPHODIESTERASE 3B) [%] | inhibition at 10 µM (MONOAMINE OXIDASE-A) [%] | inhibition at 10 µM (CYCLO OXYGENASE 2) [%] | EC50 (human PPARδ; HEK293T cells) [µM]
1 | COc1ccc(Oc2ccc3ncn(CCOc4ccc(CCC(=O)O)cc4)c3c2)cc1 [Compound 2] | 1,173 and 1,058 and 1,366 | 1,398 and 1,193 and 1,167 | > 20 | > 20 | > 20 | no discernible impact | 3.5 | -26.7 | 4.4 | -10.4 | 
2 | Cc1nnc(-c2ccc(OCCCOc3ccc(CCC(=O)O)c(F)c3)c(F)c2)s1 [Compound 1] | 1,140 and 1,672 and 0,965 | 0,945 and 2,262 and 0,954 | > 20 | > 20 | > 20 |  | -0.3 | 1.4 | 13.3 | -21.7 | 0.24 ± 0.05

— PMC11035696, “Prospective de novo drug design with deep interactome learning” (Nature Communications, 2024)
